According to ChEMBL document CHEMBL1201862, “PubChem BioAssay data set” (2004):
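In this assay, cells in 96-well plates receive the compound at five concentrations for 48 hours. Endpoints are linearly interpolated between the surrounding concentrations. GI50 = concentration required for 50% inhibition of growth.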 Active and inactive are the calls of the source. Rule as the data show it: active = GI50 up to about 1.1 µM and inactive = higher.

What was measured:
Assay in all cases: growth of human tumour cells (NCI), 48 h
[1] = system: COLO 205
[2] = system: HCT-15
[3] = system: SNB-75
[4] = system: SK-OV-3
[5] = system: OVCAR-5
[6] = system: UO-31
[7] = system: Malme-3M
[8] = system: CAKI-1
[9] = system: SW-620
[10] = system: NCI/ADR-RES
[11] = system: HT-29
[12] = system: M14
[13] = system: OVCAR-3
[14] = system: MCF7
[15] = system: T47D
[16] = system: MDA-MB-435
[17] = system: MOLT-4
[18] = system: SF-539
[19] = system: SF-268
[20] = system: HL-60

| SMILES | GI50 [1] | GI50 [2] [µM] | GI50 [3] | GI50 [4] | GI50 [5] | GI50 [6] | GI50 [7] | GI50 [8] | GI50 [9] | GI50 [10] | GI50 [11] | GI50 [12] | GI50 [13] | GI50 [14] | GI50 [15] | GI50 [16] | GI50 [17] | GI50 [18] | GI50 [19] | GI50 [20] |
| --- | --- | --- | --- | --- | --- | --- | --- | --- | --- | --- | --- | --- | --- | --- | --- | --- | --- | --- | --- | --- |
| CC(C)CC(=O)CC(O)C(Cl)(Cl)Cl (stereo unspecified) | > 100 µM (inactive) | > 100 | > 100 µM (inactive) | 87.1 µM (inactive) | > 100 µM (inactive) | > 100 µM (inactive) | 20.7 µM (inactive) | > 100 µM (inactive) | > 100 µM (inactive) | > 100 µM (inactive) | > 100 µM (inactive) | > 100 µM (inactive) | > 100 µM (inactive) | > 100 µM (inactive) | > 100 µM (inactive) | > 100 µM (inactive) | > 100 µM (inactive) | – | – | – |
| CC(=O)O[C@H]1CC[C@@]2(C)C(=CC[C@@H]3[C@@H]2CC[C@]2(C)NC(=O)/C(=C\c4ccccc4)C[C@@H]32)C1 | 17.1 µM (inactive) | 18.6 | 19.1 µM (inactive) | 20.9 µM (inactive) | 17.7 µM (inactive) | 15.7 µM (inactive) | 18 µM (inactive) | 25.9 µM (inactive) | 20.2 µM (inactive) | 24.5 µM (inactive) | 15 µM (inactive) | 16.1 µM (inactive) | 12.9 µM (inactive) | 14.9 µM (inactive) | 13.5 µM (inactive) | 14.8 µM (inactive) | > 100 µM (inactive) | 16.1 µM (inactive) | 19.6 µM (inactive) | – |
| Cc1ccc(S(=O)(=O)N2CC3OC(C)(C)OC3C2CO)cc1 (stereo unspecified) | > 100 µM (inactive) | > 100 | > 100 µM (inactive) | > 100 µM (inactive) | > 100 µM (inactive) | – | > 100 µM (inactive) | > 100 µM (inactive) | > 100 µM (inactive) | > 100 µM (inactive) | > 100 µM (inactive) | > 100 µM (inactive) | > 100 µM (inactive) | > 100 µM (inactive) | > 100 µM (inactive) | > 100 µM (inactive) | > 100 µM (inactive) | > 100 µM (inactive) | > 100 µM (inactive) | – |
| COc1ccc(N2C(=O)C3c4[nH]c5c(C)cccc5c4C4CCC(c5ccccc5)CC4C3C2=O)cc1 (stereo unspecified) | 8.63 µM (inactive) | 11.9 | 10.7 µM (inactive) | 17.7 µM (inactive) | 15.5 µM (inactive) | 20.9 µM (inactive) | – | 16.9 µM (inactive) | 9.23 µM (inactive) | 30.3 µM (inactive) | 3.21 µM (inactive) | 11.9 µM (inactive) | 24.8 µM (inactive) | 6.28 µM (inactive) | 5.81 µM (inactive) | 12.3 µM (inactive) | 3.4 µM (inactive) | – | 6.65 µM (inactive) | – |
| NC(=O)N/N=C1\C[C@H]2CCCC[C@H]2C1 | > 100 µM (inactive) | > 100 | > 100 µM (inactive) | > 100 µM (inactive) | > 100 µM (inactive) | > 100 µM (inactive) | – | > 100 µM (inactive) | > 100 µM (inactive) | > 100 µM (inactive) | > 100 µM (inactive) | > 100 µM (inactive) | > 100 µM (inactive) | > 100 µM (inactive) | > 100 µM (inactive) | > 100 µM (inactive) | > 100 µM (inactive) | > 100 µM (inactive) | > 100 µM (inactive) | > 100 µM (inactive) |
| O=C(c1cccs1)N(C(=S)OCc1ccccn1)c1ccccc1 | 88.1 µM (inactive) | 53.2 | – | > 100 µM (inactive) | 23.4 µM (inactive) | 32.6 µM (inactive) | 18.6 µM (inactive) | > 100 µM (inactive) | 92 µM (inactive) | 35.2 µM (inactive) | 33.2 µM (inactive) | > 100 µM (inactive) | 76.9 µM (inactive) | 68.4 µM (inactive) | 53.8 µM (inactive) | > 100 µM (inactive) | 45.7 µM (inactive) | 38.5 µM (inactive) | > 100 µM (inactive) | 38.4 µM (inactive) |
| CNC(=O)c1ccccc1[S+]1c2cccc3cccc(c23)C(=O)N1C (stereo unspecified) | > 100 µM (inactive) | > 100 | – | – | > 100 µM (inactive) | > 100 µM (inactive) | > 100 µM (inactive) | > 100 µM (inactive) | > 100 µM (inactive) | > 100 µM (inactive) | > 100 µM (inactive) | > 100 µM (inactive) | > 100 µM (inactive) | > 100 µM (inactive) | > 100 µM (inactive) | > 100 µM (inactive) | > 100 µM (inactive) | > 100 µM (inactive) | > 100 µM (inactive) | > 100 µM (inactive) |
| Clc1ccc(Cc2nc3cc(Cl)ccc3o2)cc1 | 29.8 µM (inactive) | 29.5 | – | 23 µM (inactive) | 39.4 µM (inactive) | 32 µM (inactive) | 36.1 µM (inactive) | 30.6 µM (inactive) | 56.4 µM (inactive) | 31.9 µM (inactive) | 26.8 µM (inactive) | 34.8 µM (inactive) | 22.4 µM (inactive) | 38.5 µM (inactive) | 35.8 µM (inactive) | 28.7 µM (inactive) | 26.5 µM (inactive) | 30.1 µM (inactive) | 43 µM (inactive) | 30.4 µM (inactive) |
